Columns and labels:
Uba1 [1] = target: T1, Uba1 (Saccharomyces cerevisiae, UniProt P22515, D544E); experiment: colorimetric ATPase assay (BIOMOL-GREEN phosphate, pyrophosphatase-coupled); assay type: biochemical; details: 80 μM ubiquitin, 1 mM ATP, 2 mM MgCl2, pH 7.5, 30 °C; turnover
T1 construct: residues 10-1024; N-terminal His-tag (pET28a); expressed in E. coli BL21 (DE3)

Uba1 [2] = target: T2, Uba1 (Saccharomyces cerevisiae, UniProt P22515, D472A); experiment: as above; assay type: biochemical; details: 80 μM ubiquitin, 1 mM ATP, 2 mM MgCl2, pH 7.5, 30 °C; turnover
T2 construct: residues 10-1024; N-terminal His-tag (pET28a); expressed in E. coli BL21 (DE3)
T2 sequence (P22515 10-1024 D472A): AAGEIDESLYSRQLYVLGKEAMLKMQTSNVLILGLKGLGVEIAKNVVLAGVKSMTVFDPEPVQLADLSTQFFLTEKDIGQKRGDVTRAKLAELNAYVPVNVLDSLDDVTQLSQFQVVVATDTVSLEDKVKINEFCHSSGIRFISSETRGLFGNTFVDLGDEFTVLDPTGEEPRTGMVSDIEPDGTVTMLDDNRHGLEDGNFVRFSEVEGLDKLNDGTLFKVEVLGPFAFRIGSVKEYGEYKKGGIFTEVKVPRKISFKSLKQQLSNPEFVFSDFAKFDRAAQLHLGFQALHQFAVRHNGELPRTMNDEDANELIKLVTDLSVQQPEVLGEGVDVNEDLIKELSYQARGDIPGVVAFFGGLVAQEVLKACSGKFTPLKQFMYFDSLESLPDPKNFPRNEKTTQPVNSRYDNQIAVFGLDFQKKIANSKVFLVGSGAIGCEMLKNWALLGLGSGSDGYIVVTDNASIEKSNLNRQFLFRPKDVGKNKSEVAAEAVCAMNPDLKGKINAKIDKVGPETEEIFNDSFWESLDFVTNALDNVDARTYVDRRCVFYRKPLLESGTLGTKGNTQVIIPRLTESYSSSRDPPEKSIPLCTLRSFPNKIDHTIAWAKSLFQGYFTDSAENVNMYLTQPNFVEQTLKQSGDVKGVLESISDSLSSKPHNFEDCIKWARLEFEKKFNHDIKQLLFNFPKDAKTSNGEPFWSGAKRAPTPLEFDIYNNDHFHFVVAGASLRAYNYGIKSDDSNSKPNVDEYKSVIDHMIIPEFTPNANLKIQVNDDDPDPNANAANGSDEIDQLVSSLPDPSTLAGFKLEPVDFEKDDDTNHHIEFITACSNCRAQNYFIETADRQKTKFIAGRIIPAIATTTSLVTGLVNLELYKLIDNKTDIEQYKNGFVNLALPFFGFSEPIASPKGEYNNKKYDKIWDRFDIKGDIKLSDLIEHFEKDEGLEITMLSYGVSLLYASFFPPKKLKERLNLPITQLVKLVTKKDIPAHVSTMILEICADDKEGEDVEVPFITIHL

T1 sequence (P22515 10-1024 D544E): as the sequence (P22515 10-1024 D472A) above, with A463D, D535E counted along it

With Nc1ncnc2c1ncn2[C@@H]1O[C@H](COP(=O)(O)OP(=O)(O)OP(=O)(O)O)[C@@H](O)[C@H]1O [ATP] the “colorimetric ATPase assay (BIOMOL-GREEN phosphate, pyrophosphatase-coupled)” value (Uba1 [1]) was “the D472A variant retained full activity as did the D472E or D544E substitutions” and the “colorimetric ATPase assay (BIOMOL-GREEN phosphate, pyrophosphatase-coupled)” value (Uba1 [2]) was “the D472A variant retained full activity as did the D472E or D544E substitutions”.
